Source: US6657060B2, “Pyrimidine derivatives” (Hoffman-La Roche Inc., priority 2000, dated 2003)

Target: T1, recombinant mouse NPY5-receptor (mNPY5) (Mus musculus, UniProt O70342)
T1 construct: The full-length cDNA encoding the mouse NPY5 (mNPY5) receptor was amplified from mouse brain cDNA; expressed in transfected cells; membranes
T1 sequence (O70342 1-466): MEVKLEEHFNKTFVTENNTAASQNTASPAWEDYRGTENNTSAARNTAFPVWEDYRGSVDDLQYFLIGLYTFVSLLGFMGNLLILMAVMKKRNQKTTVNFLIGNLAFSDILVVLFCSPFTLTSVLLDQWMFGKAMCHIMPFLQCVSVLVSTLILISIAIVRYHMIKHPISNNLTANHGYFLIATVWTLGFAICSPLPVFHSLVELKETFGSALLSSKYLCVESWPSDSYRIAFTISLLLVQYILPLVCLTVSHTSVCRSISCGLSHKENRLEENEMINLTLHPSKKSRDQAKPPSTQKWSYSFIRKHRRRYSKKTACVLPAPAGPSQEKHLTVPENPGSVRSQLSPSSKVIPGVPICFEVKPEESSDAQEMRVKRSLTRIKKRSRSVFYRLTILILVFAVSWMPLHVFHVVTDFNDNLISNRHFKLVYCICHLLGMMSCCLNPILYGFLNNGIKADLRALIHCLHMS
Assay: Radioligand competition binding
Conditions: membranes of HEK293 cells expressing mNPY5; 100 pM [125I]labelled peptide YY (PYY); 1 h at 22° C.
Source text: The full-length cDNA encoding the mouse NPY5 (mNPY5) receptor was amplified from mouse brain cDNA using specific primers, designed based on the published sequence, and Pfu DNA-Polymerase (Stratagene). The amplification product was subcloned into the mammalian expression vector pcDNA3 using Eco RI and XhoI restriction sites. Positive clones were sequenced and one clone, encoding the published sequence was selected for generation of stable cell clones.
Human embryonic kidney 293 (HEK293) cells were transfected with 10 μg mNPY5 DNA using the lipofectamine reagent (Gibco BRL) according to the manufacturer's instruction. Two days after transfection, geneticin selection (1 mg/ml) was initiated and several stable clones were isolated. One clone was further used for pharmacological characterization.
Human embryonic kidney 293 cells (HEK293), expressing recombinant mouse NPY5-receptor (mNPY5) were broken by three freeze/thawing cycles in hypotonic Tris buffer (5 mM, pH 7.4, 1 mM MgCl2), homogenized and centrifuged at 72,000×g for 15 min. The pellet was washed twice with 75 mM Tris buffer, pH 7.4, containing 25 mM MgCl2 and 250 mM sucrose, 0.1 mM phenylmethylsulfonylfluoride and 0.1 mM 1,10-pheneanthrolin, resuspended in the same buffer and stored in aliquots at −80° C. Protein was determined according to the method of Lowry using bovine serum albumine (BSA) as a standard. […]

| Structure (SMILES) | IC50 [nM] |
| --- | --- |
| Cc1cc(N2CCCC2)nc(/C=C/c2cccc(C#N)c2)n1 [Compound 20, (E)-3-[2-(4-methyl-6-pyrrolidin-1-yl-pyrimidin-2-yl)-vinyl]-benzonitrile] | 18 |
| Cc1cc(N2CCCC2)nc(/C=C/c2ccc(F)cc2F)n1 [Compound 43, (E)-2-[2-(2,4-difluoro-phenyl)-vinyl]-4-methyl-6-pyrrolidin-1-yl-pyrimidine] | 30 |
